Tests used:
human 5-HT1A receptors = target: T1, human 5-HT1A receptors (Homo sapiens, UniProt P08908); assay: displacement of [3H] 8-OH-DPAT from the 5-HT1A serotonin receptor; format: binding; settings: CHO cells stably transfected with human 5-HT1A receptors
T1 construct: expressed in transfected cells; host or cells: CHO cells
T1 sequence (P08908 1-422): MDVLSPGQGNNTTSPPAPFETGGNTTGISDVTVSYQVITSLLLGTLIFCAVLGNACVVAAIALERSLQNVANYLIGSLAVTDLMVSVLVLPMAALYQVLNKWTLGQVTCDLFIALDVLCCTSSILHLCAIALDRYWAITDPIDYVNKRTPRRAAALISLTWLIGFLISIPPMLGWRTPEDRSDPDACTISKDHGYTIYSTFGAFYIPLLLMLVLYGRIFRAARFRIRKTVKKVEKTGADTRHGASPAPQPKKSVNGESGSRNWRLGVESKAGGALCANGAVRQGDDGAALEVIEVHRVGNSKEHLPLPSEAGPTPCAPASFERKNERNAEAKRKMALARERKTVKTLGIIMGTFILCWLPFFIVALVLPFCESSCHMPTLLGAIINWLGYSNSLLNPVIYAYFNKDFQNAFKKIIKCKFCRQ

5-HT transporter = 5-HT transporter (Rattus norvegicus, UniProt P31652); assay: Rat Brain 3H-Paroxetine Binding Assay (RB 5HT Transporter); settings: rat frontal cortical membranes; 3H-paroxetine 0.1 nM, 60 min, 25° C.
5-HT transporter, sequence (P31652 whole entry): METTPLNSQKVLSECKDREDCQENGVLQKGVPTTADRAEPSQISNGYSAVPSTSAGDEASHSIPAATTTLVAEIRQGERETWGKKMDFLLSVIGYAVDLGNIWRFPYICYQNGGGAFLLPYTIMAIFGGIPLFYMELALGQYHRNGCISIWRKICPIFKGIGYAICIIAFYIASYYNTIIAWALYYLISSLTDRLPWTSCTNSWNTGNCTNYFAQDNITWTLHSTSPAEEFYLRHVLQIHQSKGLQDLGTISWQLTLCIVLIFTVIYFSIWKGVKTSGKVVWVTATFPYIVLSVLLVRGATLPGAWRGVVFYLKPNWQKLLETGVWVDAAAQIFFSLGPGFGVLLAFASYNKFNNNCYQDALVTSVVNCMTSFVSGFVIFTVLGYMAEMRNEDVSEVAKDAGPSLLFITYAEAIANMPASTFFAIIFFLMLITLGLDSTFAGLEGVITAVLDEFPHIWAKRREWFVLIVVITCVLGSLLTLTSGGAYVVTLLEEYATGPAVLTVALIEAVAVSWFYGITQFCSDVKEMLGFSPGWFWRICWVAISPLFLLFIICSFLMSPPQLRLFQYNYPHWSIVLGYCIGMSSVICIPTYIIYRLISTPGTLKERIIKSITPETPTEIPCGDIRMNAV
Excerpt: Rat Brain ^3H-Paroxetine Binding Assay (RB 5HT Transporter):
This assay was used to determine a compound's affinity of the 5-HT transporter.
All reactions were terminated by the addition of ice cold Tris buffer followed by rapid filtration using a Tom Tech filtration device to separate bound from free ^3H-paroxetine.

Ki (human 5-HT1A receptors) | Ki (5-HT transporter) | Compound
25.9 nM | 10 nM | COc1cc(N2CCN([C@H]3CC[C@H](c4csc5ccc(F)cc54)CC3)CC2)c2ncccc2c1 [Compound 50, 6-methoxy-8-{4-[4-trans(5-fluoro-1-benzothien-3-yl)cyclohexyl]piperazin-1-yl}quinoline]
0.37 nM | 17 nM | Fc1ccc2occ(CCN3CCN(c4cccc5cccnc45)CC3)c2c1 [Compound 15, 8-{4-[2-(5-fluoro-1-benzofuran-3-yl)ethyl]-1-piperazinyl}-quinoline]
1.77 nM | 130 nM | COc1ccc2occ(CC(C)N3CCN(c4cc(C)cc5cccnc45)CC3)c2c1 (stereo not drawn) [Compound 40, 6-methyl-8-{4-[2-(5-methoxy-1-benzofuran-3-yl)-1-methylethyl)piperazin-1-yl]quinoline]
0.23 nM | 4.16 nM | COc1cc(N2CCN(C(C)Cc3coc4c(OC)cccc34)CC2)c2ncccc2c1 (stereo not drawn) [Compound 36, 6-methoxy-8-{4-[2-(7-methoxy-1-benzofuran-3-yl)-1-methylethyl)piperazin-1-yl]quinoline]
0.94 nM | 97 nM | COc1ccc2c(CCN3CCN(c4cc(C)cc5cccnc45)CC3)coc2c1 [Compound 10, 8-{4-[2-(6-methoxy-1-benzofuran-3-yl)ethyl]-1-piperazinyl}-6-methyl-quinoline]
2.16 nM | 35 nM | COc1cccc2c(C(C)CN3CCN(c4cc(C)cc5cccnc45)CC3)coc12 (stereo not drawn) [Compound 32, 8-{4-[2-(7-methoxy-1-benzofuran-3-yl)propyl]-1-piperazinyl}-6-methyl-quinoline]
8.19 nM | 58 nM | COc1cccc2c(C(C)CN3CCN(c4cc(Cl)cc5cccnc45)CC3)coc12 (stereo not drawn) [Compound 33, 8-{4-[2-(7-methoxy-1-benzofuran-3-yl)propyl]-1-piperazinyl}-6-chloro-quinoline]
0.92 nM | 87 nM | COc1cccc2c1occ2[C@H]1CC[C@@H](N2CCN(c3ccc(Cl)c4cccnc34)CC2)CC1 [Compound 63, 5-chloro-8-{4-[4-cis(7-methoxy-1-benzofuran-3-yl)cyclohexyl]piperazin-1-yl}quinoline]
0.14 nM | 3.79 nM | COc1cccc2c(CCN3CCN(c4cc(Cl)cc5cccnc45)CC3)coc12 [Compound 20, 8-{4-[2-(7-methoxy-1-benzofuran-3-yl)ethyl]-1-piperazinyl}-6-chloro-quinoline]
0.11 nM | 116 nM | Fc1cc(N2CCN([C@H]3CC[C@@H](c4coc5ccccc54)CC3)CC2)c2ncccc2c1 [Compound 55, 8-{4-[4-cis(1-benzofuran-3-yl)cyclohexyl]-1-piperazinyl}-6-fluoroquinoline]
0.14 nM |  | COc1ccc2occ(CC(C)N3CCN(c4cccc5cccnc45)CC3)c2c1 (stereo not drawn) [Compound 38, 8-{4-[2-(5-methoxy-1-benzofuran-3-yl)-1-methylethyl)piperazin-1-yl]quinoline]

Second part, the molecule before the results:

Compound | Ki (human 5-HT1A receptors) | Ki (5-HT transporter)
Fc1cc(N2CCN(CCc3coc4ccc(F)cc34)CC2)c2ncccc2c1 [Compound 17, 8-{4-[2-(5-fluoro-1-benzofuran-3-yl)ethyl]-1-piperazinyl}-6-fluoro-quinoline] | 1.59 nM | 16.5 nM
CC(CN1CCN(c2cc(Cl)cc3cccnc23)CC1)c1coc2ccccc12 (stereo not drawn) [Compound 28, 8-{4-[2-(1-benzofuran-3-yl)propyl]-1-piperazinyl}-6-chloro-quinoline] | 110 nM | 73 nM
COc1ccc2occ([C@H]3CC[C@@H](N4CCN(c5ccc(Cl)c6cccnc56)CC4)CC3)c2c1 [Compound 65, 5-chloro-8-{4-[4-cis(5-methoxy-1-benzofuran-3-yl)cyclohexyl]piperazin-1-yl}quinoline] | 10.1 nM | 53 nM
COc1cccc2c(C(C)CN3CCN(c4cccc5cccnc45)CC3)coc12 (stereo not drawn) [Compound 31, 8-{4-[2-(7-methoxy-1-benzofuran-3-yl)propyl]-1-piperazinyl}quinoline] | 0.91 nM | 4.17 nM
Fc1cc(N2CCN(CCc3coc4ccccc34)CC2)c2ncccc2c1 [Compound 1, 8-{4-[2-(1-benzofuran-3-yl)ethyl]-1-piperazinyl}-6-fluoroquinoline] |  | 6.5 nM
COc1cccc2c(CC(C)N3CCN(c4cc(C)cc5cccnc45)CC3)coc12 (stereo not drawn) [Compound 37, 6-methyl-8-{4-[2-(7-methoxy-1-benzofuran-3-yl)-1-methylethyl)piperazin-1-yl]quinoline] |  | 471 nM
Fc1cc(N2CCN([C@H]3CC[C@@H](c4csc5ccc(F)cc54)CC3)CC2)c2ncccc2c1 [Compound 47, 6-fluoro-8-{4-[4-cis(5-fluoro-1-benzothien-3-yl)cyclohexyl]piperazin-1-yl}quinoline] | 1.72 nM | 
COc1cccc2c(C(C)CN3CCN(c4cc(C)cc5cccnc45)CC3)coc12 (stereo not drawn) [Compound 34, 8-{4-[2-(7-methoxy-1-benzofuran-3-yl)propyl]-1-piperazinyl}-6-methyl-quinoline] | 9.13 nM | 35 nM
CC(CN1CCN(c2cc(F)cc3cccnc23)CC1)c1coc2ccccc12 (stereo not drawn) [Compound 29, 8-{4-[2-(1-benzofuran-3-yl)propyl]-1-piperazinyl}-6-fluoro-quinoline] | 112 nM | 68 nM
COc1ccc2occ(CC(C)N3CCN(c4cc(Cl)cc5cccnc45)CC3)c2c1 (stereo not drawn) [Compound 39, 6-chloro-8-{4-[2-(5-methoxy-1-benzofuran-3-yl)-1-methylethyl)piperazin-1-yl]quinoline] | 0.34 nM | 5.5 nM
COc1ccc2c(CCN3CCN(c4cccc5cccnc45)CC3)coc2c1 [Compound 9, 8-{4-[2-(6-methoxy-1-benzofuran-3-yl)ethyl]-1-piperazinyl}-quinoline] | 0.37 nM | 33 nM
Clc1cc(N2CCN(CCc3coc4ccccc34)CC2)c2ncccc2c1 [Compound 2, 8-{4-[2-(1-benzofuran-3-yl)ethyl]-1-piperazinyl}-6-chloroquinoline] | 124 nM | 176 nM
Cc1cc(N2CCN(CC(C)c3coc4ccccc34)CC2)c2ncccc2c1 (stereo not drawn) [Compound 30, 8-{4-[2-(1-benzofuran-3-yl)propyl]-1-piperazinyl}-6-methyl-quinoline] | 79.1 nM | 93 nM
Cc1cc(N2CCN(CCc3coc4ccccc34)CC2)c2ncccc2c1 [Compound 3, 8-{4-[2-(1-benzofuran-3-yl)ethyl]-1-piperazinyl}-6-methylquinoline] | 1.93 nM | 14 nM
COc1cccc2c1occ2[C@H]1CC[C@H](N2CCN(c3ccc(F)c4cccnc34)CC2)CC1 [Compound 58, 5-fluoro-8-{4-[4-trans(7-methoxy-1-benzofuran-3-yl)cyclohexyl]-1-piperazinyl}quinoline] | 21.1 nM | 34 nM
Clc1cc(N2CCN(CCc3coc4cc(Cl)ccc34)CC2)c2ncccc2c1 [Compound 7, 8-{4-[2-(6-chloro-1-benzofuran-3-yl)ethyl]-1-piperazinyl}-6-chloro-quinoline] | 15.4 nM | 
Clc1cc(N2CCN(CCc3coc4ccc(Cl)cc34)CC2)c2ncccc2c1 [Compound 13, 8-{4-[2-(5-chloro-1-benzofuran-3-yl)ethyl]-1-piperazinyl}-6-chloro-quinoline] | 41.3 nM | 64 nM
COc1cc(N2CCN(CCc3coc4ccc(OC)cc34)CC2)c2ncccc2c1 [Compound 25, 8-{4-[2-(5-methoxy-1-benzofuran-3-yl)ethyl]-1-piperazinyl}-6-methoxy-quinoline] | 8.71 nM | 47 nM
COc1ccc2occ([C@H]3CC[C@H](N4CCN(c5ccc(Cl)c6cccnc56)CC4)CC3)c2c1 [Compound 66, 5-chloro-8-{4-[4-trans(5-methoxy-1-benzofuran-3-yl)cyclohexyl]piperazin-1-yl}quinoline] | 1.99 nM | 89 nM
COc1cccc2c(CCN3CCN(c4cccc5cccnc45)CC3)coc12 [Compound 18, 8-{4-[2-(7-methoxy-1-benzofuran-3-yl)ethyl]-1-piperazinyl}-quinoline] | 0.11 nM | 0.65 nM
COc1cc(N2CCN(CCc3coc4ccc(F)cc34)CC2)c2ncccc2c1 [Compound 16, 8-{4-[2-(5-fluoro-1-benzofuran-3-yl)ethyl]-1-piperazinyl}-6-methoxy-quinoline] | 8.05 nM | 62 nM
Cc1cc(N2CCN(CCc3coc4cc(Cl)ccc34)CC2)c2ncccc2c1 [Compound 8, 8-{4-[2-(6-chloro-1-benzofuran-3-yl)ethyl]-1-piperazinyl}-6-methyl-quinoline] | 36.7 nM | 403 nM
CC(CN1CCN(c2cccc3cccnc23)CC1)c1coc2ccccc12 (stereo not drawn) [Compound 27, 8-{4-[2-(1-benzofuran-3-yl)propyl]-1-piperazinyl}quinoline] | 19.3 nM | 32 nM
Fc1cc(N2CCN(CCc3coc4cc(Cl)ccc34)CC2)c2ncccc2c1 [Compound 6, 8-{4-[2-(6-chloro-1-benzofuran-3-yl)ethyl]-1-piperazinyl}-6-fluoro-quinoline] | 16.1 nM | 471 nM
COc1cccc2c(CC(C)N3CCN(c4cccc5cccnc45)CC3)coc12 (stereo not drawn) [Compound 35, 8-{4-[2-(7-methoxy-1-benzofuran-3-yl)-1-methylethyl)piperazin-1-yl]quinoline] | 1.22 nM | 

Source: patent US7276603B2, “Benzofuranyl-and benzothienyl-piperazinyl quinolines and methods of their use” (Wyeth, priority 2003, dated 2007)
